US7834044B2, “Substituted-2-imidazoles” (Hoffman-LaRoche Inc., priority 2006, dated 2010)

target: T1, TAAR1 (Mus musculus, UniProt Q923Y8); assay: TAAR1 radioligand binding assay on membranes of stably transfected HEK293 cells; settings: not given
T1 construct: expressed in transfected cells; host or cells: HEK293 (ATCC # CRL-1573), stably transfected with pIRESneo2 expression plasmid; membranes prepared
Protocol: The ability of the compounds of the present invention to bind to TAAR 1 was investigated in accordance with the test given hereinafter.
The Expand High Fidelity PCR System (Roche Diagnostics) was used with 1.5 mM Mg^2+ and purified PCR products were cloned into pCR2.1-TOPO cloning vector (Invitrogen) following the instructions of the manufacturer. PCR products were subcloned into the pIRESneo2 vector (BD Clontech, Palo Alto, Calif.), and expression vectors were sequence verified before introduction in cell lines.
For the generation of stably transfected cell lines HEK293 cells were transfected with the pIRESneo2 expression plasmids containing the TAAR coding sequences (described above) with Lipofectamine 2000 (Invitrogen) according to the instructions of the manufacturer, and 24 hours post transfection the culture medium was supplemented with 1 mg/ml G418 (Sigma, Buchs, Switzerland). After a culture period of about 10 days, clones were isolated, expanded and tested for responsiveness to trace amines (all compounds purchased from Sigma) with the cAMP Biotrak Enzyme immunoassay (EIA) System (Amersham) following the non-acetylation EIA procedure provided by the manufacturer.
Cells at confluence were rinsed with ice-cold phosphate buffered saline without Ca^2+ and Mg^2+ containing 10 mM EDTA and pelleted by centrifugation at 1000 rpm for 5 min at 4° C. The pellet was then washed twice with ice-cold phosphate buffered saline and cell pellet was frozen immediately by immersion in liquid nitrogen and stored until use at −80° C. The cell pellet was then suspended in 20 ml HEPES-NaOH (20 mM), pH 7.4 containing 10 mM EDTA, and homogenized with a Polytron (PT 3000, Kinematica) at 10,000 rpm for 10 seconds. The homogenate was centrifuged at 48,000×g for 30 minutes at 4° C. and the pellet resuspended in 20 ml HEPES-NaOH (20 mM), pH 7.4 containing 0.1 mM EDTA (buffer A), and homogenized with a Polytron at 10,000 rpm for 10 seconds. The homogenate was then centrifuged at 48,000×g for 30 minutes at 4° C. and the pellet resuspended in 20 ml buffer A, and homogenized with a Polytron at 10,000 rpm for 10 seconds. Protein concentration was determined by the method of Pierce (Rockford, Ill.). The homogenate was then centrifuged at 48,000×g for 10 minutes at 4° C., resuspended in HEPES-NaOH (20 mM), pH 7.0 including MgCl2 (10 mM) and CaCl2 ([…]) (buffer B) at 200 μg protein per ml and homogenized with a Polytron at 10,000 rpm for 10 seconds.
Binding assay was performed at 4° C. in a final volume of 1 ml, and with an incubation time of 30 minutes. […] Non-specific binding was defined as the amount of [^3H]-rac-2-(1,2,3,4-tetrahydro-1-naphthyl)-2-imidazoline bound in the presence of the appropriate unlabelled ligand (10 μM). Competing ligands were tested in a wide range of concentrations (10 pM-30 μM). […] Each experiment was performed in duplicate. All incubations were terminated by rapid filtration through UniFilter-96 plates (Packard Instrument Company) and glass filter GF/C, pre-soaked for at least 2 h in polyethylenimine 0.3%, and using a Filtermate 96 Cell Harvester (Packard Instrument Company). The tubes and filters were then washed 3 times with 1 ml aliquots of cold buffer B. Filters were not dried and soaked in Ultima gold (45 μl/well, Packard Instrument Company) and bound radioactivity was counted by a TopCount Microplate Scintillation Counter (Packard Instrument Company).

T1 sequence (Q923Y8 whole entry): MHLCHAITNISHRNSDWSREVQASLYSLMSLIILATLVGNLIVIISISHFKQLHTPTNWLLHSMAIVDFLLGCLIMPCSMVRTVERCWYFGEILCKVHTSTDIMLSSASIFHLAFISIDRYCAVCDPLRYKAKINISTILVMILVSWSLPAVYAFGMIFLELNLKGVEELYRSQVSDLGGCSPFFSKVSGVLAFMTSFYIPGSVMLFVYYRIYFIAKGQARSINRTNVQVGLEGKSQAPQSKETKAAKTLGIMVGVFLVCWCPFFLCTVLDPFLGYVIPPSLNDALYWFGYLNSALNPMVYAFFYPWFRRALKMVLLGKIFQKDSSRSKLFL

| SMILES | Ki [µM] |
| --- | --- |
| COc1cccc2c1N(Cc1ncc[nH]1)CC2 [Example 20, 1-(1H-Imidazol-2-ylmethyl)-7-methoxy-2,3-dihydro-1H-indole] | 0.118 |
| c1ccc(Oc2cccc3c2CCCN3Cc2ncc[nH]2)cc1 [Example 42, 1-(1H-Imidazol-2-ylmethyl)-5-phenoxy-1,2,3,4-tetrahydro-quinoline] | 0.0046 |
| Cc1cccc2c1CCN2Cc1ncc[nH]1 [Example 33, 1-(1H-Imidazol-2-ylmethyl)-4-methyl-2,3-dihydro-1H-indole] | 0.125 |
| c1ccc2c(c1)CCN2Cc1ncc[nH]1 [Example 1, 1-(1H-Imidazol-2-ylmethyl)-2,3-dihydro-1H-indole] | 0.0289 |
| COc1cccc2c1CCN2Cc1ncc[nH]1 [Example 23, 1-(1H-Imidazol-2-ylmethyl)-4-methoxy-2,3-dihydro-1H-indole] | 0.115 |
| Clc1cccc2c1CCN2Cc1ncc[nH]1 [Example 17, 4-Chloro-1-(1H-imidazol-2-ylmethyl)-2,3-dihydro-1H-indole] | 0.0362 |
| CCc1cccc2c1N(Cc1ncc[nH]1)CC2 [Example 15, 7-Ethyl-1-(1H-imidazol-2-ylmethyl)-2,3-dihydro-1H-indole] | 0.0435 |
| C[C@@H]1c2ccccc2N(Cc2ncc[nH]2)[C@@H]1C (racemic) [Example 14, (2RS,3RS)-1-(1H-Imidazol-2-ylmethyl)-2,3-dimethyl-2,3-dihydro-1H-indole] | 0.196 |
| Clc1ccc2c(c1)N(Cc1ncc[nH]1)CC2 [Example 16, 6-Chloro-1-(1H-imidazol-2-ylmethyl)-2,3-dihydro-1H-indole] | 0.035 |
| Brc1ccc2c(c1)CCN2Cc1ncc[nH]1 [Example 4, 5-Bromo-1-(1H-imidazol-2-ylmethyl)-2,3-dihydro-1H-indole] | 0.055 |
| Cc1cccc2c1N(Cc1ncc[nH]1)CC2 [Example 32, 1-(1H-Imidazol-2-ylmethyl)-7-methyl-2,3-dihydro-1H-indole] | 0.173 |

same assay, conditions: mouse TAAR1; radioligand [3H]-rac-2-(1,2,3,4-tetrahydro-1-naphthyl)-2-imidazoline at 60 nM; 4° C., 30 minutes; read-out: Ki (μM) mouse

| SMILES | Ki [µM] |
| --- | --- |
| Brc1ccc2c(c1)CCCN2Cc1ncc[nH]1 [Example 25, 6-Bromo-1-(H-imidazol-2-ylmethyl)-1,2,3,4-tetrahydro-quinoline] | 0.0951 |
| Cc1ccc2c(c1)N(Cc1ncc[nH]1)CC2 [Example 26, 1-(1H-Imidazol-2-ylmethyl)-6-methyl-2,3-dihydro-1H-indole] | 0.129 |
| c1ccc(COc2cccc3c2CCCN3Cc2ncc[nH]2)cc1 [Example 38, 5-Benzyloxy-1-(1H-imidazol-2-ylmethyl)-1,2,3,4-tetrahydro-quinoline] | 0.0513 |
| Clc1cccc2c1N(Cc1ncc[nH]1)CC2 [Example 24, 7-Chloro-1-(1H-imidazol-2-ylmethyl)-2,3-dihydro-1H-indole] | 0.0557 |

same assay, conditions: radioligand binding to TAAR1 membranes; species not stated; read-out: calculated Kd value of the radioligand

| SMILES | Kd [µM] |
| --- | --- |
| c1ccc2c(c1)CCCC2C1=NCCN1 (racemic) [[^3H]-rac-2-(1,2,3,4-tetrahydro-1-naphthyl)-2-imidazoline, reference compound] | 0.06 |
